Assay results from patent US20240325397A1, “USE OF COMBINATION THERAPY FOR TREATING CANCER” (Recurium IP Holdings, LLC, priority 2021, published 2024).

Tests used:
[1] = test system: tamoxifen resistant ZR-75-1 tumor cells (ZR-75-1R); test: Single agent efficacy in ZR-75-1 tamoxifen resistant tumor model; assay type: in vivo, mouse; conditions: post 28 days treatment; Tamoxifen 100 mg/kg 5 days per week for three weeks; Compound (A) 80 mg/kg orally daily for 28 days; FIG. 4
Procedure: Compound (A)'s efficacy as a single agent was evaluated in ZR-75-1 tamoxifen resistant tumor model. The tamoxifen resistant ZR-75-1 tumor cells (ZR-75-1R) were maintained in vitro as monolayer culture in RPMI1640 Medium supplemented with 10% fetal bovine serum and 10 μM tamoxifen at 37° C. in an atmosphere of 5% CO2 incubator. Each mouse was then inoculated subcutaneously on the right flank with 1×10^7 ZR-75-1R tumor cells in 100 μL RPMI-1640 Matrigel mixture (1:1 ratio) without serum for the tumor development. In addition, estradiol benzoate injection was delivered by s.c. (40 ug/20 uL, twice weekly). Mice were then randomized into 3 groups when mean tumor size reached 191 mm^3 and treatment was started. Tamoxifen was dosed at 100 mg/kg 5 days per week for three weeks, Compound (A) was orally dosed at 80 mg/kg daily for 28 days. Study endpoints included daily body weight, clinical observations, tumor volume. In FIG. 4, the top line is Tamoxifen (100 mg/kg), the middle line is vehicle, and the bottom line is Compound (A) (80 mg/kg). […] No other gross clinical abnormalities were observed during the treatment period and animal body loss was manageable by giving animals dosing holiday.

[2] = test system: MCF-7 tumor cells; test: Compound (A) in combination with palbociclib in MCF-7 xenograft model; assay type: in vivo, mouse; conditions: 28 days; for tumor regression: Compound (A) 80/60 mg/kg, palbociclib 50 mg/kg, alone or in combination; for TGI: monotherapy: Compound (A) 80/60 mg/kg alone or palbociclib 50 mg/kg alone, FIG. 6
Procedure: The antitumor activity of Compound (A) in combination with a CDK4/6 inhibitor, palbociclib was evaluated in the MCF-7 xenograft model. Each mouse was inoculated subcutaneously on the right flank with the MCF-7 tumor cells (1.5×10^7) in 200 μL DMEM Matrigel mixture (1:1 ratio) without serum for the tumor development. In addition, estradiol benzoate injection was delivered by s.c. (40 ug/20 uL, twice weekly). When mean tumor size reached 202 mm^3, mice were randomized into 5 groups (10 animals/group) and treatment was started. Animals were dosed with vehicle, 80/60 mg/kg Compound (A) alone, 50 mg/kg palbociclib alone, 80 mg/kg Compound (A) in combination with 50 mg/kg Palbociclib by sequential dosing schedule (alternated per two weeks) or Compound (A) at 80/60 mg/kg in combination with palbociclib at 50 mg/kg. Treatment periods were 28 days. In FIG. 6, the top line (indicated with circles) is vehicle. […] Furthermore, Compound (A) in combination with palbociclib induced around 55% tumor regression.

[3] = test system: MCF-7 cells; test: Compound (A) in combination with palbociclib at a lower dose in MCF-7 xenograft model; assay type: in vivo, mouse; conditions: Compound (A) 60 mg/kg, palbociclib 25 mg/kg, alone or in combination; FIG. 7
Procedure: The antitumor activity of Compound (A) in combination with a CDK4/6 inhibitor, palbociclib at a lower dose was evaluated in the MCF-7 xenograft model. Each mouse was inoculated subcutaneously on the 2nd right mammary fat pad with 1.5×10^7 MCF-7 cells in 200 μL DMEM Matrigel mixture (1:1 ratio) without serum for the tumor development. In addition, estradiol benzoate injection was delivered by s.c. (40 ug/20 uL, twice weekly). The treatments were started when mean tumor size reached 203 mm^3. Mice were randomized into 4 groups (8 mice per group) and treated with vehicle control, 60 mg/kg Compound (A) alone, 25 mg/kg Palbociclib alone, Compound (A) at 60 mg/kg in combination with 25 mg/kg palbociclib. Study endpoints included daily body weight, clinical observations, tumor volume.

[4] = test system: MCF-7 tumor cells; test: Antitumor activity of Compound (A) as single agent in MCF-7 xenograft model; assay type: in vivo, mouse
Procedure: The antitumor activity of Compound (A) was assessed using the MCF-7 xenograft model. Each mouse was inoculated subcutaneously on the 2nd right mammary fat pad with 1.5×10^7 MCF-7 tumor cells in 200 μL DMEM Matrigel mixture (1:1 ratio) without serum for the tumor development. In addition, estradiol benzoate injection was delivered by s.c. (40 ug/20 uL, twice weekly). When mean tumor size reached 204 mm^3, animals were randomized into 2 groups (10 animals/group) and the treatments were initiated. Compound (A) or vehicle control was administered once daily by oral gavage and continued for 28-days. Study endpoints included daily body weight, clinical observations, tumor volume. […] In FIG. 3, the top line is vehicle, and the bottom line is Compound (A) (80 mg/kg qd×22 p.o).

[5] = test system: HCC1428 tumor cells; test: Activity in mice bearing human HCC1428 breast cancer xenograft tumors; assay type: in vivo
Procedure: The activity of Compound (A) as evaluated in mice bearing human HCC1428 breast cancer xenograft tumors. Each mouse was inoculated subcutaneously at the right flank with HCC1428 tumor cells (1×10^7) in 0.2 mL mixture of PBS and Matrigel (PBS: Matrigel=1:1) for tumor development, which has been subcutaneously implanted with 17beta-estradiol tablets (0.18 mg, 90-day release) two days before cell implantation. Treatments were started on day 21 after tumor inoculation when the average tumor size reached approximately 185 mm^3. The animals were assigned into two groups using an excel-based randomization software performing stratified randomization based upon their tumor volumes. Each group consisted of 10 tumor bearing mice. The vehicle control or Compound (A) at 80 mg/kg was administrated once daily to the mice by oral gavage for 28 days. In FIG. 5, the top line is vehicle, and the bottom line is Compound (A).

[6] = test system: palbociclib-resistant breast cancer cells (CTG-1207); test: Palbociclib-resistant breast cancer PDX model (CTG-1207); assay type: in vivo, mice; conditions: Compound (A) 80 mg/kg, palbociclib 50 mg/kg, alone or in combination; FIG. 10A
Procedure: The antitumor activity of Compound (A) in combination with palbociclib was further evaluated in a palbociclib-resistant breast cancer PDX model (CTG-1207). Mice were inoculated subcutaneously with palbociclib-resistant breast cancer cells in DMEM Matrigel mixture (1:1 ratio) without serum for tumor development. Once tumor size reached approximately 200 mm^3, mice were randomized into 4 groups (8 mice per group) and treated with vehicle control, 80 mg/kg Compound (A) alone, 50 mg/kg Palbociclib alone, or Compound (A) at 80 mg/kg in combination with 50 mg/kg palbociclib. Study endpoints included daily body weight, clinical observations, tumor volume.

[7] = test system: HER2+ JIMT-1 breast cancer cell line; test: HER2+ JIMT-1 breast cancer xenograft, Study 1-Part 1; assay type: in vivo; conditions: Compound (A) 60 mg/kg p.o. qd × 28, trastuzumab 10 mg/kg i.p. qw × 4
Procedure: The HER2+ JIMT-1 breast cancer cell line was used for tumor xenograft inoculations and subsequent treatment. […] Treatment was started when mean tumor size reached 204 mm^3. Mice were then randomized into 5 groups and treatments were administered to the tumor-bearing mice accordingly to the study design in Table 2.

[8] = test system: HER2+ JIMT-1 breast cancer cell line; test: HER2+ JIMT-1 breast cancer xenograft, Study 1-Part 2 (high initial tumor burden); assay type: in vivo, NOD/SCID mice; conditions: Day 14 of second part; tumors approximately 1000 mm^3 at start; Compound (A) 60 mg/kg p.o. qd; trastuzumab 10 mg/kg i.p. qw; vs. vehicle
[9] = Compound (A) 80 mg/kg once daily p.o.
[10] = Compound (A) 80 mg/kg once daily p.o. 28 days

Row | SMILES | TGI (tumor growth inhibition) [1] [%] | tumor regression [2] [%] | TGI [2] | TGI [3] [%] | inhibition of tumor growth ([4]; Compound (A) 80 mg/kg once daily by oral gavage, single agent, FIG. 3) [%] | clinical observations [4, 9] | mean body weights [4, 9] | tumor growth inhibition (TGI) ([5]; Compound (A) 80 mg/kg once daily by oral gavage for 28 days, FIG. 5) [%] | body weight loss [5, 10] | clinical observations [5, 10] | tumor growth / TGI (in words) [6] | tumor growth inhibition (TGI) on Day 29 compared to respective vehicle controls ([7]; combination vs. either vehicle control) [%] | TGI (%) vs. Vehicle A ([7]; Day 29, Vehicle A p.o.) [%] | TGI (%) on Day 14 [8] [%]
1 | CC/C(=C(\c1ccccc1)c1ccc(OCCN(C)C)cc1)c1ccccc1 [Tamoxifen, reference compound] | −47.9 |  |  |  |  |  |  |  |  |  |  |  |  | 
2 | CC(=O)c1c(C)c2cnc(Nc3ccc(N4CCNCC4)cn3)nc2n(C2CCCC2)c1=O [palbociclib, reference compound] |  | 39.1 | ~119% | 14.2 |  |  |  |  |  |  |  |  |  | 
3 | C=CCn1c(=O)c2cnc(Nc3ccc(N4CCN(C)CC4)cc3)nc2n1-c1ccc2c(n1)[C@@](O)(CC)CC2 [Compound (A)] | 69.9 | 32.7 | around 116% | 48.6 | 132.6 | no adverse clinical observations | no significant impact on mean body weights | 96.2 | no significant body weight loss | no adverse clinical observations | reduced tumor growth | 68 | 67.7 | 68.2
